This note sets out measurements from patent US20250304576A1 (Cancer Research Technology Limited, priority 2022, published 2025).

Molecules are shown by their SMILES. Where only a bound is given, the exact number is not on record here.

One assay has as its target T1, Recombinant IKKα (Homo sapiens, UniProt O15111).
T1 construct: purchased Millipore, Dundee, UK
T1 sequence (O15111 1-745): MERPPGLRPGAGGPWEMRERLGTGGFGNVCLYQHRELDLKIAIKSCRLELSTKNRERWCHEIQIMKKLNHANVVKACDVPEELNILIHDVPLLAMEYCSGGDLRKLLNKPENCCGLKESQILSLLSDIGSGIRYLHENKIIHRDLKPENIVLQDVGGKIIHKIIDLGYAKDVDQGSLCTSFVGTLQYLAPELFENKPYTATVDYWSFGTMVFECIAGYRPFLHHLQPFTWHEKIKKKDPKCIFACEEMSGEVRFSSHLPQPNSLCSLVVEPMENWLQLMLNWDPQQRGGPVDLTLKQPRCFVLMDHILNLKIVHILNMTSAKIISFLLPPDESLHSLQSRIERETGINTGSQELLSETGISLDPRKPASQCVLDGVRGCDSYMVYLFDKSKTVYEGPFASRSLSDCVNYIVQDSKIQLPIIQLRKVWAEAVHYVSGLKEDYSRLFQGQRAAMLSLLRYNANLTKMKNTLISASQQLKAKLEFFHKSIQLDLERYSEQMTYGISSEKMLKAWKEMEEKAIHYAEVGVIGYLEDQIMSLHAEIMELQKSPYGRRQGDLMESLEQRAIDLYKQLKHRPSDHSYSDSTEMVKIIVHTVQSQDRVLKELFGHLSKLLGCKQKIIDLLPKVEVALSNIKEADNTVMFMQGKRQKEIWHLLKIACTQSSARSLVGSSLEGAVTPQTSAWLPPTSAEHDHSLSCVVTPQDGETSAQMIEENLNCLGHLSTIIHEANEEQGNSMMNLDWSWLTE
Kind of assay: DELFIA IKKα kinase assay (apparent Ki, Cheng-Prusoff). Format: biochemical. Particulars: DELFIA assay (first line of an example). In outline: (§1)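 DELFIA time-resolved fluorescence (ex 340/em 615 nm) quantified phosphorylation of a biotinylated IκB-α Ser32 peptide (0.375 μM) by 37 nM recombinant IKKα or IKKβ. Reactions used 40 μM ATP, Tris pH 7.5 buffer with MgCl2, DTT and BSA, 60 min at 30° C. Cheng-Prusoff equation gave apparent Ki.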

For a further assay, the target named is T2, Recombinant IKKβ (Homo sapiens, UniProt O14920).
T2 construct: purchased Millipore, Dundee, UK
T2 sequence (O14920 1-756): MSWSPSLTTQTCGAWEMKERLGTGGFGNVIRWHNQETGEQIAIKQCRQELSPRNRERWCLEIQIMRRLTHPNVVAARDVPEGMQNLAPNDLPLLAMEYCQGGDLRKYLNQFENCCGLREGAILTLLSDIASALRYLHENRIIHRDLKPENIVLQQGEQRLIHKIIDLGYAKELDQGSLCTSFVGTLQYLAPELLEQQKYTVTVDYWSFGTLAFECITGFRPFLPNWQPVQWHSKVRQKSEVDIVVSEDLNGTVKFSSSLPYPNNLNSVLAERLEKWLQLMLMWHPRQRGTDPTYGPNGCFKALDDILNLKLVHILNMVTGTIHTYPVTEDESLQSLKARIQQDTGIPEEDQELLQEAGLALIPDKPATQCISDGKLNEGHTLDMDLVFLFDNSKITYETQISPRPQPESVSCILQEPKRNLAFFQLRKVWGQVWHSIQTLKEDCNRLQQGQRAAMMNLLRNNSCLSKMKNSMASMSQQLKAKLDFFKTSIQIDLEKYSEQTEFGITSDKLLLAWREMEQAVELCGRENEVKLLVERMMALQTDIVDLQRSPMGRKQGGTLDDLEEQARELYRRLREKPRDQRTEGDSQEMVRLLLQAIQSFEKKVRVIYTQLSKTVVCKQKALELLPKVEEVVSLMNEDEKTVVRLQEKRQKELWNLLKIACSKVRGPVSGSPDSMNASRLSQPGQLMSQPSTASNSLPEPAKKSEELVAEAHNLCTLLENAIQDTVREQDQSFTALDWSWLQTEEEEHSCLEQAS
The assay is described as follows: DELFIA IKKβ kinase assay (apparent Ki, Cheng-Prusoff). Format: biochemical. Particulars: DELFIA assay (first line of an example). In outline:
as §1

Turning to `CC(C)(O)C#Cc1cc(-c2ccnc(NC(=O)C3CC3)c2)cc2c(N)n[nH]c12` [Example 290, N-(4-(3-Amino-7-(3-hydroxy-3-methylbut-1-yn-1-yl)-1H-indazol-5-yl)pyridin-2-yl)cyclopropanecarboxamide], the Ki on Recombinant IKKα amounted to 55 nM; on Recombinant IKKβ, 242 nM.

For the molecule `CC(C)(O)CCc1cc(-c2ccnc(NC(=O)C3CC3)c2)cc2c(N)n[nH]c12` [Example 292, N-(4-(3-Amino-7-(3-hydroxy-3-methylbutyl)-1H-indazol-5-yl)pyridin-2-yl)cyclopropanecarboxamide], the Ki turned out to be 9 nM on Recombinant IKKα and 44 nM on Recombinant IKKβ.

`COC(=O)Nc1cc(-c2cc(CCC(C)(C)C)c3[nH]nc(N)c3c2)ccn1` [Example 293, Methyl (4-(3-amino-7-(3,3-dimethylbutyl)-1H-indazol-5-yl)pyridin-2-yl)carbamate]: the Ki amounted to 19 nM on Recombinant IKKα and 278 nM at Recombinant IKKβ.

`CC(C)(C)C#Cc1cc(-c2ccnc3[nH]c(C4CC4)cc23)cc2c(N)n[nH]c12` [Example 294, 5-(2-Cyclopropyl-1H-pyrrolo[2,3-b]pyridin-4-v)-7-(3,3-dimethylbut-1-yn-1-Vl)-1H-indazol-3-amine]: the Ki at Recombinant IKKα was 57 nM; at Recombinant IKKβ it was 322 nM.

For the molecule `CC(C)(C)C#Cc1cc(-c2ccnc3[nH]c(C4CCCC4)cc23)cc2c(N)n[nH]c12` [Example 295, 5-(2-Cyclopentyl-1H-pyrrolo[2,3-b]pyridin-4-yl)-7-(3,3-dimethylbut-1-yn-1-yl)-1H-indazol-3-amine], the Ki at Recombinant IKKα turned out to be 545 nM; at Recombinant IKKβ, 1160 nM.

Consider `CC(C)(C)C#Cc1cc(-c2ccnc3[nH]c(C(C)(C)C)cc23)cc2c(N)n[nH]c12` [Example 296, 5-(2-(tert-Butyl)-1H-pyrrolo[2,3-b]pyridin-4-yl)-7-(3,3-dimethylbut-1-yn-1-yl)-1H-indazol-3-amine], for which the Ki on Recombinant IKKα stood at 449 nM; at Recombinant IKKβ, 1080 nM.

In the case of `CC(C)(C)C#Cc1cc(-c2ccnc3[nH]c(CO)cc23)cc2c(N)n[nH]c12` [Example 297, (4-(3-Amino-7-(3,3-dimethylbut-1-yn-1-yl)-1H-indazol-5-yl)-1H-pyrrolo[2,3-b]pyridin-2-yl)methanol], the results for the Ki at Recombinant IKKα and at Recombinant IKKβ were 2 nM and 268 nM, respectively.

As to `CC(C)(C)C#Cc1cc(-c2ccnc3[nH]c(C(C)(C)O)cc23)cc2c(N)n[nH]c12` [Example 298, 2-(4-(3-Amino-7-(3,3-dimethylbut-1-yn-1-yl)-1H-indazol-5-yl)-1H-pyrrolo[2,3-b]pyridin-2-yl)propan-2-ol], the Ki at Recombinant IKKα turned out to be 16 nM; on Recombinant IKKβ, 540 nM.

As for `COC(=O)c1cc2c(-c3cc(C#CC(C)(C)C)c4[nH]nc(N)c4c3)ccnc2[nH]1` [Example 299, Methyl 4-(3-amino-7-(3,3-dimethylbut-1-yn-1-yl)-1H-indazol-5-yl)-1H-pyrrolo[2,3-b]pyridine-2-carboxylate], the Ki is 10 nM on Recombinant IKKα and more than 370 nM on Recombinant IKKβ.

For the molecule `CC(C)(C)C#Cc1cc(-c2ccnc3[nH]c(C(F)F)nc23)cc2c(N)n[nH]c12` [Example 300, 5-(2-(Difluoromethyl)-3H-imidazo[4,5-b]pyridin-7-yl)-7-(3,3-dimethylbut-1-yn-1-yl)-1H-indazol-3-amine], the results for the Ki on Recombinant IKKα and on Recombinant IKKβ were 13 nM and 1340 nM, respectively.

In the case of `CC(C)(C)C#Cc1cc(-c2ccnc3[nH]c(C4CCC4)nc23)cc2c(N)n[nH]c12` [Example 301, 5-(2-Cyclobutyl-3H-imidazo[4,5-b]pyridin-7-yl)-7-(3,3-dimethylbut-1-yn-1-yl)-1H-indazol-3-amine], the Ki at Recombinant IKKα was found to be 82 nM; on Recombinant IKKβ, 1240 nM.

In the case of `Cn1ccc(Nc2cc(-c3cc(C#CC(C)(C)C)c4[nH]nc(N)c4c3)ccn2)n1` [Example 302, 7-(3,3-dimethylbut-1-yn-1-yl)-5-(2-((1-methyl-1H-pyrazol-3-yl)amino)pyridin-4-yl)-1H-indazol-3-amine], the Ki on Recombinant IKKα worked out at 62 nM; on Recombinant IKKβ, 148 nM.

Turning to `Cn1cc(Nc2cc(-c3cc(C#CC(C)(C)C)c4[nH]nc(N)c4c3)ccn2)cn1` [Example 303, 7-(3,3-dimethylbut-1-yn-1-yl)-5-(2-((1-methyl-1H-pyrazol-4-yl)amino)pyridin-4-yl)-1H-indazol-3-amine], the figures for the Ki on Recombinant IKKα and at Recombinant IKKβ were 36 nM and 68 nM, respectively.

For the molecule `COC(=O)Nc1cc(-c2cc(C#CC3(O)CCCC3)c3[nH]nc(N)c3c2)ccn1` [Example 304, Methyl (4-(3-amino-7-((1-hydroxycyclopentyl)ethynyl)-1H-indazol-5-yl)pyridin-2-yl)carbamate], the figures for the Ki at Recombinant IKKα and at Recombinant IKKβ were 64 nM and 275 nM, respectively.

Turning to `Nc1n[nH]c2c(C#CC3(O)CCCC3)cc(-c3ccnc(NC4COC4)c3)cc12` [Example 305, 1-((3-Amino-5-(2-(oxetan-3-ylamino)pyridin-4-yl)-1H-indazol-7-yl)ethynyl)cyclopentan-1-ol], the results for the Ki at Recombinant IKKα and on Recombinant IKKβ were 96 nM and 1090 nM, respectively.

For the molecule `CC(C)(C)C#Cc1cc(-c2ccnc3[nH]c(C(F)(F)F)nc23)cc2c(N)n[nH]c12` [Example 308, 7-(3,3-dimethylbut-1-yn-1-yl)-5-(2-(trifluoromethyl)-3H-imidazo[4,5-b]pyridin-7-yl)-1H-indazol-3-amine], the results for the Ki at Recombinant IKKα and on Recombinant IKKβ were 223 nM and more than 3330 nM, respectively.

With `CC(C)(C)C#Cc1cc(-c2ccnc(NC#N)c2)cc2c(N)n[nH]c12` [Example 309, N-(4-(3-Amino-7-(3,3-dimethylbut-1-yn-1-yl)-1H-indazol-5-yl)pyridin-2-yl)cyanamide], the Ki at Recombinant IKKα amounted to 421 nM; at Recombinant IKKβ, 8660 nM.

For `CC(C)(C)C#Cc1cc(-c2ccnc(Nc3cc[nH]n3)c2)cc2c(N)n[nH]c12` [Example 310, 5-(2-((1H-Pyrazol-3-yl)amino)pyridin-4-yl)-7-(3,3-dimethylbut-1-yn-1-yl)-1H-indazol-3-amine], the results for the Ki at Recombinant IKKα and at Recombinant IKKβ were 48 nM and 205 nM, respectively.

For `CC(C)(C)C#Cc1cc(-c2ccnc(Nc3cn[nH]c3)c2)cc2c(N)n[nH]c12` [Example 311, 5-(2-((1H-Pyrazol-4-yl)amino)pyridin-4-yl)-7-(3,3-dimethylbut-1-yn-1-yl)-1H-indazol-3-amine], the Ki on Recombinant IKKα was 10 nM; on Recombinant IKKβ, 280 nM.

On to `Cc1cc(Nc2cc(-c3cc(C#CC(C)(C)C)c4[nH]nc(N)c4c3)ccn2)n[nH]1` [Example 312, 7-(3,3-Dimethylbut-1-yn-1-yl)-5-(2-((5-methyl-1H-pyrazol-3-yl)amino)pyridin-4-yl)-1H-indazol-3-amine], for which the values for the Ki at Recombinant IKKα and on Recombinant IKKβ were 45 nM and 210 nM, respectively.

On to `Cc1n[nH]cc1Nc1cc(-c2cc(C#CC(C)(C)C)c3[nH]nc(N)c3c2)ccn1` [Example 313, 7-(3,3-Dimethylbut-1-yn-1-yl)-5-(2-((3-methyl-1H-pyrazol-4-yl)amino)pyridin-4-yl)-1H-indazol-3-amine], for which the Ki at Recombinant IKKα was found to be 24 nM; at Recombinant IKKβ, 940 nM.

On to `CC(C)(C)C#Cc1cc(-c2ccnc(Nc3nccs3)c2)cc2c(N)n[nH]c12` [Example 314, N-(4-(3-Amino-7-(3,3-dimethylbut-1-yn-1-yl)-1H-indazol-5-yl)pyridin-2-yl)thiazol-2-amine], for which the figures for the Ki at Recombinant IKKα and at Recombinant IKKβ were 911 nM and not below 10000 nM, respectively.
